How the values were obtained:
[1] = target: T1, S. aureus SrtAΔN24 (Staphylococcus aureus, UniProt Q2FV99); experiment: biochemical; assay type: biochemical; conditions: for Hill Coefficient: fit of fractional activity vs inhibitor concentration
[2] = target: T1, S. aureus SrtAΔN24; experiment: HPLC-based SrtA activity assay at fixed inhibitor concentrations; assay type: biochemical; conditions: read-out: percent inhibition (%I)
[3] = target: SrtA Cys184 (Staphylococcus aureus, UniProt Q2FV99); experiment: ESI-MS and MS/MS of trypsin-digested inhibitor-treated SrtA; assay type: binding; conditions: SrtA incubated with compound, SDS-PAGE, trypsin digest

SMILES	Hill Coefficient [1]	also measured
C=CS(=O)(=O)[C@H]1C[C@@](CCC(=O)OC)(C(=O)OC)N[C@H]1c1ccc(OC)c(OC)c1 (relative stereo) [Compound 2k, Methyl (2S*,4S*,5S*)-5-(3,4-dimethoxyphenyl)-4-ethenesulfonyl-2-(2-methoxycarbonylethyl)pyrrolidine-2-carboxylate]	–	IC50 [1]: > 5 mM
C=CS(=O)(=O)[C@H]1C[C@@](CCC(=O)OC)(C(=O)OC)N[C@H]1c1cccnc1 (relative stereo) [Compound 2l, Methyl (2S*,4S*,5S*)-4-ethenesulfonyl-2-(2-methoxycarbonylethyl)-5-pyridin-3-yl-pyrrolidine-2-carboxylate]	1.40 ± 0.33	–
C=CS(=O)(=O)[C@H]1C[C@]2(C(=O)OC)CCC(=O)N2[C@H]1c1ccccc1 (relative stereo) [Compound 3j, Methyl (2S*,3S*,7aS*)-2-ethenesulfonyl-5-oxo-3-phenyltetrahydropyrrolizine-7a-carboxylate]	1.90 ± 0.23	–
C=CS(=O)(=O)[C@H]1C[C@]2(C(=O)OC)CCC(=O)N2[C@H]1c1ccc(OC)c(OC)c1 (relative stereo) [Compound 3k, Methyl (2S*,3S*,7aS*)-3-(3,4-dimethoxyphenyl)-2-ethenesulfonyl-5-oxotetrahydropyrrolizine-7a-carboxylate]	1.39 ± 0.28	–
C=CS(=O)(=O)[C@H]1C[C@]2(C(=O)OC)CCC(=O)N2[C@H]1c1cccnc1 (relative stereo) [Compound 3l, Methyl (2S*,3S*,7aS*)-2-ethenesulfonyl-5-oxo-3-pyridin-3-yl-tetrahydropyrrolizine-7a-carboxylate]	1.42 ± 0.14	–
Cc1cn(C[C@@H]2C[C@H](C#N)[C@H](c3ccccc3)N2C)c(=O)[nH]c1=O (relative stereo) [Compound 9, (2R*,3S*,5S*)-1-Methyl-5-(5-methyl-2,4-dioxo-3,4-dihydro-2H-pyrimidin-1-ylmethyl)-2-phenylpyrrolidine-3-carbonitrile]	–	inhibition at 1000 µM [2]: 6%
C=CS(=O)(=O)C1CC(C(=O)OC)NC1c1cccc(F)c1 (stereo not shown) [Compound 2c]	–	covalent modification of SrtA [3]: formation of a covalent adduct with Cys184

Reference: publication PMC2663005 (Bioorganic & medicinal chemistry, 2009)
